Experimental findings from patent publication US10329294B2, “Pyrazolopyrimidine inhibitors of IRAK4 activity” (MERCK SHARP & DOHME CORP., priority 2015, dated 2019) are described below.

Counter-ions that a name gives are not always drawn.

Sequence of IRAK4 (Q9NWZ3 whole entry): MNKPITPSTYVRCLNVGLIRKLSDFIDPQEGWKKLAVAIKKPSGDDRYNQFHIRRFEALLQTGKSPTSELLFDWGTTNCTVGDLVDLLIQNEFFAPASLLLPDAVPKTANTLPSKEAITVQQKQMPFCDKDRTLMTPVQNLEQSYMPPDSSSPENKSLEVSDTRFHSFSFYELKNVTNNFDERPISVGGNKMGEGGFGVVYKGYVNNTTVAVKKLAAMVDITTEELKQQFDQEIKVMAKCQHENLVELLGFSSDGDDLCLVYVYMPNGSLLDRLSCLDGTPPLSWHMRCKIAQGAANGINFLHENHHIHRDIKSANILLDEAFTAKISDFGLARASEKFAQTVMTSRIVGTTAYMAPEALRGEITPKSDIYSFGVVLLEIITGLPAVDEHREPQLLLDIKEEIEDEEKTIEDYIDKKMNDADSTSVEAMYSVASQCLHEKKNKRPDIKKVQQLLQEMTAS

The assay has as its target IRAK4 (Homo sapiens (Human), UniProt Q9NWZ3). The assay can be described thus: IRAK4 Kinase Assay. It counts as biochemical. Conditions: IMAP fluorescence polarization, 0.5 nM GST tagged IRAK4, 100 μM ATP, 30 minutes at 25° C.; read-out: IRAK4 IC50. (Polarisation of emitted light reports the rotation of a fluorescent probe.)
Turning to `Cn1cc(NC(=O)c2cnn3ccc(N[C@H]4CCCCC[C@H]4N)nc23)c(C(F)(F)F)n1` (relative stereo) [Example 33, 5-{[cis-2-aminocycloheptyl]amino}-N-[1-methyl-3-(trifluoromethyl)-1H-pyrazol-4-yl]pyrazolo[1,5-a]pyrimidine-3-carboxamide], the IC50 was 2 nM.

For `C[C@@H]1CN(c2ccn3ncc(C(=O)Nc4cn(C)nc4C(F)(F)F)c3n2)[C@H](C)CN1` (relative stereo) [Example 75, 5-[cis-2,5-dimethylpiperazin-1-yl]-N-[1-methyl-3-(trifluoromethyl)-1H-pyrazol-4-yl]pyrazolo[1,5-a]pyrimidine-3-carboxamide trifluoroacetate], the IC50 is 55 nM.

Turning to `C[C@@H]1CN[C@@H](C)CN1c1ccn2ncc(C(=O)Nc3cn(C)nc3C(F)(F)F)c2n1` (relative stereo) [Example 93, 5-[trans-2,5-dimethylpiperazin-1-yl]-N-[1-methyl-3-(trifluoromethyl)-1H-pyrazol-4-yl]pyrazolo[1,5-a]pyrimidine-3-carboxamide trifluoroacetate], the IC50 was 30 nM.

With `Cn1cc(NC(=O)c2cnn3ccc(N[C@@H]4CCCCC[C@@H]4N)nc23)c(C(F)(F)F)n1` (single isomer, unassigned) [Example 54, 5-{[(1R,2S)- or (1S,2R)-2-aminocycloheptyl]amino}-N-[1-methyl-3-(trifluoromethyl)-1H-pyrazol-4-yl]pyrazolo[1,5-a]pyrimidine-3-carboxamide], the half-maximal inhibitory concentration (IC50) amounted to 63 nM.

For the compound `Cn1cc(NC(=O)c2cnn3ccc(N[C@H]4CCCCC[C@H]4N)nc23)c(C(F)(F)F)n1` (single isomer, unassigned) [Example 55, 5-{[(1R,2S)- or (1S,2R)-2-aminocycloheptyl]amino}-N-[1-methyl-3-(trifluoromethyl)-1H-pyrazol-4-yl]pyrazolo[1,5-a]pyrimidine-3-carboxamide], the IC50 worked out at 8 nM.

For `Cn1cc(NC(=O)c2cnn3ccc(N4C[C@H]5CC[C@@H]4CN5)nc23)c(C(F)(F)F)n1` (single isomer, unassigned) [Example 77, 5-[1S,4S)- or (1R,4R)-2,5-diazabicyclo[2.2.2]oct-2-yl]-N-[1-methyl-3-(trifluoromethyl)-1H-pyrazol-4-yl]pyrazolo[1,5-a]pyrimidine-3-carboxamide trifluoroacetate], the IC50 worked out at 19 nM.

On to `Cn1cc(NC(=O)c2cnn3ccc(N4C[C@@H]5CC[C@H]4CN5)nc23)c(C(F)(F)F)n1` (single isomer, unassigned) [Example 78, 5-[(1S,4S)- or (1R,4R)-2,5-diazabicyclo[2.2.2]oct-2-yl]-N-[1-methyl-3-(trifluoromethyl)-1H-pyrazol-4-yl]pyrazolo[1,5-a]pyrimidine-3-carboxamide trifluoroacetate], for which the IC50 was 44 nM.

Regarding `Cn1cc(NC(=O)c2cnn3ccc(N4C[C@@H]5CNC[C@H]4C5)nc23)c(C(F)(F)F)n1` (single isomer, unassigned) [Example 83, 5-[(1S,5R)- or (1R,5S)-3,6-diazabicyclo[3.2.1]oct-6-yl]-N-[1-methyl-3-(trifluoromethyl)-1H-pyrazol-4-yl]pyrazolo[1,5-a]pyrimidine-3-carboxamide], the IC50 came to 33 nM.

Turning to `Cn1cc(NC(=O)c2cnn3ccc(N4C[C@H]5CNC[C@@H]4C5)nc23)c(C(F)(F)F)n1` (single isomer, unassigned) [Example 84, 5-[(1S,5R)- or (1R,5S)-3,6-diazabicyclo[3.2.1]oct-6-yl]-N-[1-methyl-3-(trifluoromethyl)-1H-pyrazol-4-yl]pyrazolo[1,5-a]pyrimidine-3-carboxamide], the IC50 is 158 nM.

In the case of `Cn1cc(NC(=O)c2cnn3ccc(N4CC[C@H]5CC[C@@H](C4)N5)nc23)c(C(F)(F)F)n1` (single isomer, unassigned) [Example 89, 5-[(1R,6S)- or (1S,6R)-3,9-diazabicyclo[4.2.1]non-3-yl]-N-[1-methyl-3-(trifluoromethyl)-1H-pyrazol-4-yl]pyrazolo[1,5-a]pyrimidine-3-carboxamide trifluoroacetate], the IC50 amounted to 270 nM.

Regarding `Cn1cc(NC(=O)c2cnn3ccc(N4CC[C@@H]5CC[C@H](C4)N5)nc23)c(C(F)(F)F)n1` (single isomer, unassigned) [Example 94, 5-[(1R,6S)- or (1S,6R)-3,9-diazabicyclo[4.2.1]non-3-yl]-N-[1-methyl-3-(trifluoromethyl)-1H-pyrazol-4-yl]pyrazolo[1,5-a]pyrimidine-3-carboxamide trifluoroacetate], the IC50 was 70 nM.

With `Cn1cc(NC(=O)c2cnn3ccc(N4C[C@@H]5CC[C@H]4CN5)nc23)c(Cl)n1` (single isomer, unassigned) [Example 151, N-(3-chloro-1-methyl-1H-pyrazol-4-yl)-5-[(1S,4S)- or (1R,4R)-(2,5-diazabicyclo[2.2.2]oct-2-yl]pyrazolo[1,5-a]pyrimidine-3-carboxamide trifluoroacetate], the IC50 amounted to 128 nM.

In the case of `Cn1cc(NC(=O)c2cnn3ccc(N4C[C@H]5CC[C@@H]4CN5)nc23)c(Cl)n1` (single isomer, unassigned) [Example 152, N-(3-chloro-1-methyl-1H-pyrazol-4-yl)-5-[(1S,4S)- or (1R,4R)-(2,5-diazabicyclo[2.2.2]oct-2-yl]pyrazolo[1,5-a]pyrimidine-3-carboxamide trifluoroacetate], the IC50 stood at 28 nM.

As to `O=C(Nc1cscc1C(F)F)c1cnn2ccc(N3C[C@@H]4CC[C@H]3CN4)nc12` (single isomer, unassigned) [Example 154, 5-[(1S,4S)- or (1R,4R)-2,5-diazabicyclo[2.2.2]oct-2-yl]-N-[4-(difluoromethyl)thiophen-3-yl]pyrazolo[1,5-a]pyrimidine-3-carboxamide trifluoroacetate], the IC50 came out at 86 nM.

With `O=C(Nc1cscc1C(F)F)c1cnn2ccc(N3C[C@H]4CC[C@@H]3CN4)nc12` (single isomer, unassigned) [Example 155, 5-[(1S,4S)- or (1R,4R)-2,5-diazabicyclo[2.2.2]oct-2-yl]-N-[4-(difluoromethyl)thiophen-3-yl]pyrazolo[1,5-a]pyrimidine-3-carboxamide trifluoroacetate], the IC50 stood at 32 nM.

As to `Cn1cc(NC(=O)c2cnn3ccc(N4C[C@@H]5CC[C@H]4CN5)nc23)c(C#N)n1` (single isomer, unassigned) [Example 156, N-(3-cyano-1-methyl-1H-pyrazol-4-yl)-5-[(1S,4S)- or (1R,4R)-2,5-diazabicyclo[2.2.2]oct-2-yl]pyrazolo[1,5-a]pyrimidine-3-carboxamide trifluoroacetate], the IC50 is 41 nM.

Regarding `Cn1cc(NC(=O)c2cnn3ccc(N4C[C@H]5CC[C@@H]4CN5)nc23)c(C#N)n1` (single isomer, unassigned) [Example 157, N-(3-cyano-1-methyl-1H-pyrazol-4-yl)-5-[(1S,4S)- or (1R,4R)-2,5-diazabicyclo[2.2.2]oct-2-yl]pyrazolo[1,5-a]pyrimidine-3-carboxamide trifluoroacetate], the IC50 was found to be 60 nM.

`Cn1cc(NC(=O)c2cnn3ccc(N4C[C@@H]5CC[C@H]4CN5)nc23)c(C(F)F)n1` (single isomer, unassigned) [Example 158, 5-[(1S,4S)- or (1R,4R)-2,5-diazabicyclo[2.2.2]oct-2-yl]-N-[3-(difluoromethyl)-1-methyl-1H-pyrazol-4-yl]pyrazolo[1,5-a]pyrimidine-3-carboxamide trifluoroacetate]: the IC50 is 3 nM.

On to `Cn1cc(NC(=O)c2cnn3ccc(N[C@H]4CCCCNC4)nc23)c(C(F)(F)F)n1` (single isomer, unassigned) [Example 159, 5-[(3S)- or (3R)-azepan-3-ylamino]-N-[1-methyl-3-(trifluoromethyl)-1H-pyrazol-4-yl]pyrazolo[1,5-a]pyrimidine-3-carboxamide trifluoroacetate], for which the IC50 came out at 18 nM.

As to `Cn1cc(NC(=O)c2cnn3ccc(N[C@@H]4CCCCNC4)nc23)c(C(F)(F)F)n1` (single isomer, unassigned) [Example 160, 5-[(3S)- or (3R)-azepan-3-ylamino]-N-[1-methyl-3-(trifluoromethyl)-1H-pyrazol-4-yl]pyrazolo[1,5-a]pyrimidine-3-carboxamide trifluoroacetate], the IC50 stood at 0.5 nM.

As for `Cn1cc(NC(=O)c2cnn3ccc(N4C[C@H]5CC[C@@H]4CN5)nc23)c(C(F)F)n1` (single isomer, unassigned) [Example 161, 5-[(1S,4S)- or (1R,4R)-2,5-diazabicyclo[2.2.2]oct-2-yl]-N-[3-(difluoromethyl)-1-methyl-1H-pyrazol-4-yl]pyrazolo[1,5-a]pyrimidine-3-carboxamide trifluoroacetate], the IC50 is 2 nM.

Consider `Cn1cc(NC(=O)c2cnn3ccc(N[C@@H]4CCCCNC4)nc23)c(C(F)F)n1` (single isomer, unassigned) [Example 162, 5-[(3S)- or (3R)-azepan-3-ylamino]-N-[3-(difluoromethyl)-1-methyl-1H-pyrazol-4-yl]pyrazolo[1,5-a]pyrimidine-3-carboxamide trifluoroacetate], for which the IC50 came to 0.2 nM.

As for `Cn1cc(NC(=O)c2cnn3ccc(N[C@H]4CCCCNC4)nc23)c(C(F)F)n1` (single isomer, unassigned) [Example 163, 5-[(3S)- or (3R)-azepan-3-ylamino]-N-[3-(difluoromethyl)-1-methyl-1H-pyrazol-4-yl]pyrazolo[1,5-a]pyrimidine-3-carboxamide trifluoroacetate], the IC50 stood at 7 nM.

Regarding `Cn1cc(NC(=O)c2cnn3ccc(N4C[C@@H]5CC[C@H]4CN5)nc23)c(Br)n1` (single isomer, unassigned) [Example 164, N-(3-bromo-1-methyl-1H-pyrazol-4-yl)-5-[(1S,4S)- or (1R,4R)-2,5-diazabicyclo[2.2.2]oct-2-yl]pyrazolo[1,5-a]pyrimidine-3-carboxamide trifluoroacetate], the IC50 worked out at 50 nM.

A word on the IC50: it is the concentration at which inhibition is half-maximal.
